# Measurements taken from PubChem BioAssay (NCI).
#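 A five-concentration, 48-hour dose response in 96-well plates underlies each endpoint, interpolated linearly between surrounding concentrations. Abbreviation: GI50, concentration required for 50% inhibition of growth. TGI is the concentration that stops growth completely.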
# Assays:
# Experiment in all cases: NCI-60 cell line screen, 48 h
# BT-549 breast = test system: BT-549 breast
# CCRF-CEM leukemia = test system: CCRF-CEM leukemia
# EKVX NSCLC = test system: EKVX NSCLC
# HCC-2998 colon = test system: HCC-2998 colon
# LOX IMVI melanoma = test system: LOX IMVI melanoma
# MCF7 breast = test system: MCF7 breast
# NCI-H23 lung = test system: NCI-H23 lung
# SF-295 CNS = test system: SF-295 CNS
# SF-539 CNS = test system: SF-539 CNS
# NCI/ADR-RES ovarian = test system: NCI/ADR-RES ovarian
Structure (SMILES),TGI (BT-549 breast),TGI (CCRF-CEM leukemia),TGI (EKVX NSCLC),TGI (HCC-2998 colon),TGI (LOX IMVI melanoma),TGI (MCF7 breast),TGI (NCI-H23 lung),TGI (SF-295 CNS),TGI (SF-539 CNS),GI50 (BT-549 breast),GI50 (CCRF-CEM leukemia),GI50 (EKVX NSCLC),GI50 (LOX IMVI melanoma),GI50 (MCF7 breast),GI50 (NCI-H23 lung),GI50 (NCI/ADR-RES ovarian),TGI (NCI/ADR-RES ovarian),GI50 (SF-295 CNS),GI50 (SF-539 CNS),GI50 (HCC-2998 colon)
O=S(=O)(NC1CCCCC1)c1ccc2c(c1)OCCOCCOCCOCCO2,> 100 µM,> 100 µM,> 100 µM,> 100 µM,> 100 µM,> 100 µM,> 100 µM,> 100 µM,> 100 µM,,,,,,,,,,,
CO/N=C(\COc1ccc2c(=O)c3ccccc3oc2c1)c1ccccc1,74.5 µM,> 100 µM,50.6 µM,,> 100 µM,> 100 µM,> 100 µM,78.1 µM,50.6 µM,26.8 µM,> 100 µM,20.9 µM,35.9 µM,37.9 µM,> 100 µM,77.1 µM,> 100 µM,28.7 µM,19 µM,
CCCCCCCCCCCC1=NC(C)(C)CN1C(C)(C)CO,22 µM,12.4 µM,16.9 µM,3.24 µM,3.79 µM,5.64 µM,4.67 µM,4.29 µM,3.51 µM,9.89 µM,2.94 µM,2.77 µM,1.91 µM,2.48 µM,2.11 µM,2.41 µM,5.76 µM,2.04 µM,1.85 µM,1.75 µM
C[C@H]1[C@H](C)N1CC(O)Cn1ccnc1[N+](=O)[O-] (stereo partly drawn),> 100 µM,> 100 µM,> 100 µM,> 100 µM,> 100 µM,> 100 µM,> 100 µM,> 100 µM,> 100 µM,,,,,,,,> 100 µM,,,
Cc1ccc(/C=C(\C#N)c2cc3ccccc3n2C)cc1,> 26.7 µM,> 100 µM,> 100 µM,> 100 µM,> 100 µM,> 100 µM,> 100 µM,1.46 µM,1.02 µM,0.742 µM,0.355 µM,0.58 µM,0.542 µM,0.305 µM,0.541 µM,0.361 µM,> 100 µM,0.285 µM,0.294 µM,0.484 µM
COc1ccc2c(c1)[n+](=O)c(C(=O)c1cccs1)c(C(F)(F)F)n2[O-],6.57 µM,> 50 µM,8.21 µM,22.7 µM,12.7 µM,23.7 µM,25.8 µM,16.5 µM,16.2 µM,1.3 µM,11 µM,1.48 µM,2.09 µM,4.58 µM,2.88 µM,4.99 µM,> 50 µM,2.89 µM,5.1 µM,4.72 µM
CN1C(=O)c2ccc3ccccc3c2C1=O,> 100 µM,> 100 µM,87.2 µM,> 100 µM,,> 100 µM,> 100 µM,> 100 µM,> 100 µM,,,,,,,,> 100 µM,,,
COC(=O)c1c2c(c(C)[n+]([O-])c1C)C(=O)C=C(NCc1ccccc1)C2=O,2.92 µM,3.71 µM,2.55 µM,1.7 µM,1.53 µM,0.892 µM,2.46 µM,2.35 µM,1.94 µM,1.45 µM,0.668 µM,1.14 µM,0.34 µM,0.26 µM,0.632 µM,0.453 µM,2.95 µM,1.11 µM,0.711 µM,0.432 µM
CN(C)c1ccc(Nc2c3ccccc3nc3ccccc23)cc1,8.19 µM,15.7 µM,6.35 µM,3.93 µM,2.26 µM,3.44 µM,2.92 µM,2.75 µM,8.33 µM,1.71 µM,1.23 µM,1.4 µM,0.585 µM,0.471 µM,1.1 µM,1.12 µM,2.93 µM,0.579 µM,1.72 µM,1.41 µM
COc1ccc2c(c1)/C(=C\c1ccncc1)C(=O)N2,32.4 µM,> 100 µM,33 µM,> 100 µM,5.82 µM,> 100 µM,43.5 µM,72.8 µM,11.4 µM,12.5 µM,3.06 µM,13.9 µM,2.26 µM,8.68 µM,12.3 µM,12.3 µM,67.1 µM,15.7 µM,2.98 µM,19 µM
CCC(=O)N1C/C(=C/c2ccc(Cl)cc2)C(=O)/C(=C/c2ccc(Cl)cc2)C1,1.52 µM,> 22.3 µM,,1.82 µM,0.354 µM,1.36 µM,3.74 µM,2.09 µM,1.91 µM,0.462 µM,0.422 µM,,0.161 µM,0.324 µM,1.44 µM,1.79 µM,12.2 µM,0.514 µM,0.69 µM,0.735 µM
O=[N+]([O-])c1cccc(/C=N/NC2=CS(=O)(=O)C=C2)c1,> 100 µM,> 100 µM,> 100 µM,,> 100 µM,> 100 µM,> 100 µM,> 100 µM,> 100 µM,,,,,,,,> 100 µM,,,
CCOC(=O)N1C/C(=C\c2ccccc2)C(=O)/C(=C/c2ccccc2)C1,4.54 µM,5.79 µM,31.8 µM,4.8 µM,3.63 µM,> 20.9 µM,11.4 µM,10.1 µM,11 µM,,,,,,,,36.6 µM,,,
COc1ccc2c(c1)nc(NNC(=O)c1cnccn1)c1cccn12,3.62 µM,> 44.1 µM,3.7 µM,2.43 µM,1.57 µM,1.86 µM,5.24 µM,1.76 µM,2.6 µM,0.917 µM,0.0678 µM,0.161 µM,0.0837 µM,0.266 µM,0.64 µM,0.25 µM,3.26 µM,0.175 µM,0.393 µM,1.05 µM
OCCCCC#Cc1ccccc1C#Cc1ccc(O)cc1,28.8 µM,26.1 µM,37 µM,30.4 µM,27.7 µM,49.2 µM,28.7 µM,32 µM,35.9 µM,14.1 µM,7.35 µM,17 µM,13.6 µM,17.4 µM,14.3 µM,17.3 µM,35.2 µM,16.2 µM,17.9 µM,15.4 µM
